Data from patent US11046716B2, “Beta-lactamase inhibitors” (priority 2015, dated 2021).

Key:
SHV-5 = target: T1, SHV-5 (Klebsiella pneumoniae, UniProt P0A3M1); assay: β-lactamase enzyme inhibition assay, SHV-5 (cefotaxime substrate); type: biochemical
T1 construct: made in house; host or cells: E. coli BL21(DE3)
Procedure, shortened: (§1)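 Compounds are mixed with purified, untagged recombinant β-lactamase and held 15 min at 37 °C. Substrate is then added: nitrocefin (100 μM final) for OXA-1, imipenem for KPC-2, cefotaxime for SHV-5. Absorbance is followed immediately, and percent inhibition per concentration gives the IC50.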

KPC-2 = target: T2, KPC-2 (Klebsiella pneumoniae, UniProt Q9F663); assay: β-lactamase enzyme inhibition assay, KPC-2 (imipenem substrate); type: biochemical; conditions: Class A; imipenem substrate, 300 nm; read-out: KPC-2
T2 construct: made in house; host or cells: E. coli BL21(DE3)
Procedure, shortened: as §1

VIM-2 = target: T3, VIM-2 (Escherichia coli, UniProt Q5U7L7); assay: β-lactamase enzyme inhibition assay, VIM-2 (nitrocefin substrate); type: biochemical; conditions: Class B; nitrocefin substrate, 486 nm; read-out: VIM-2
T3 construct: made in house; host or cells: E. coli BL21(DE3)
Procedure, shortened: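 Nitrocefin hydrolysis (100 μM final, A486 read for 10 min) by purified VIM-2 after a 15-min, 37° C enzyme–inhibitor preincubation. IC50 is the concentration halving initial hydrolysis rate, derived from percent inhibition against no-inhibitor wells.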

AmpC = target: T4, AmpC (Enterobacter cloacae, UniProt P05364); assay: β-lactamase enzyme inhibition assay, p99 AmpC (nitrocefin substrate); type: biochemical
T4 construct: made in house; host or cells: E. coli BL21(DE3)
Procedure, shortened: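 Compounds are mixed with purified, untagged recombinant β-lactamase and held 15 min at 37 °C. Substrate is then added. Absorbance is followed immediately, and percent inhibition per concentration gives the IC50.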

OXA-48 = OXA-48 (UniProt Q6XEC0); assay: β-lactamase enzyme inhibition assay, Class D oxacillinase; type: biochemical; conditions: read-out: OXA-48
[1] = system: E. coli expressing the Class A Extended Spectrum Beta-Lactamase (ESBL) CTX-M-15; assay: Broth microdilution MIC assay with ceftazidime, E. coli CTX-M-15; type: cell-based; conditions: Fixed CAZ (ceftazidime) 4 μg/mL; E. coli ESBL4 CTX-M-15
Procedure, shortened: (§2)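 CLSI broth microdilution in cation-adjusted Mueller Hinton broth measured growth of β-lactamase-expressing strains, grown 3-5 h beforehand. The β-lactam partner was held at 4 μg/ml final while test compound was titrated 2-fold from 16 to 0.125 μg/mL final. After 16-20 h at 37° C, the compound MIC was determined by eye.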

[2] = system: E. cloacae expressing the Class C P99; assay: Broth microdilution MIC assay with ceftazidime, E. cloacae P99; type: cell-based; conditions: Fixed CAZ (ceftazidime) 4 μg/mL; E. cl. 144200 p99 AmpC
Procedure, shortened: as §2

[3] = system: K. pneumoniae expressing the Class A carbapenemase KPC-2; assay: Broth microdilution MIC assay with meropenem, K. pneumoniae KPC-2; type: cell-based; conditions: Fixed Mero (meropenem) 4 μg/mL; K. p. 156319 KPC-3
Procedure, shortened: as §2

[4] = system: P. aeruginosa expressing the Class B carbapenemase VIM-2; assay: Broth microdilution MIC assay with meropenem, P. aeruginosa VIM-2; type: cell-based; conditions: Fixed Mero (meropenem) 4 μg/mL; P. aerug. 2775 VIM-2
Procedure, shortened: as §2

[5] = system: K. pneumoniae expressing the class A carbapenemase KPC-2 and the class B carbapenemase VIM-4; assay: Broth microdilution MIC assay with meropenem, K. pneumoniae KPC-2 and VIM-4; type: cell-based; conditions: Fixed Mero (meropenem) 4 μg/mL; K. p. A-1797 KPC-2 VIM-4
Procedure, shortened: as §2

[6] = system: K. pneumoniae producing the Class D carbapenemase OXA-48; assay: Broth microdilution MIC assay with meropenem, K. pneumoniae OXA-48; type: cell-based; conditions: Fixed Mero (meropenem) 4 μg/mL; K. p. 11978 OXA-48
Procedure, shortened: as §2

T1 sequence (P0A3M1 22-286): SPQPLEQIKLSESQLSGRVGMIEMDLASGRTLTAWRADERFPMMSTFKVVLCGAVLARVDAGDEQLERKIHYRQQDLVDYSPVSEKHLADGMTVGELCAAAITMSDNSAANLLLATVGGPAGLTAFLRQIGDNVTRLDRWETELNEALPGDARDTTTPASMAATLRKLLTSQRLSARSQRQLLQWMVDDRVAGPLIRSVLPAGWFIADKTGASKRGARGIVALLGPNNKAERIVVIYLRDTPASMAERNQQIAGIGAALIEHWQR
T4 sequence (P05364 21-381): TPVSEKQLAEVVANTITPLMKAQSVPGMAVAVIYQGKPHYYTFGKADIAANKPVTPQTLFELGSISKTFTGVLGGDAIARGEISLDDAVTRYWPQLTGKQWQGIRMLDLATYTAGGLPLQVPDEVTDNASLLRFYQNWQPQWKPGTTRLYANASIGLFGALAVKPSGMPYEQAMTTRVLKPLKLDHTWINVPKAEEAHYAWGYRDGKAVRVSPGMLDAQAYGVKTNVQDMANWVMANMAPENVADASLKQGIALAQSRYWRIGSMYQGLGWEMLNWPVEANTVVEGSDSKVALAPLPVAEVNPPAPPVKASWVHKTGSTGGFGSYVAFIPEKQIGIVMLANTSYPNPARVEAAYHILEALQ
T2 sequence (Q9F663 25-293, looked up): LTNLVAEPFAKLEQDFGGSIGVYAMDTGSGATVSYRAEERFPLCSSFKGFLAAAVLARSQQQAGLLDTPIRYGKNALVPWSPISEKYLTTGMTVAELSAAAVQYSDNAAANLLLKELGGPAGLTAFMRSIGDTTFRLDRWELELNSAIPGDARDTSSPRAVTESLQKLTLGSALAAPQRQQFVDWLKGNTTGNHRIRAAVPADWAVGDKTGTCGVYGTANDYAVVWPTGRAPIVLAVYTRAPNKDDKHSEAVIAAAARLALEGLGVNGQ

SMILES | IC50 (SHV-5) | IC50 (KPC-2) | IC50 (VIM-2) | IC50 (AmpC) | IC50 (OXA-48) | MIC (μg/mL) of Exemplary Compounds in presence of fixed β-lactams: E. coli ESBL4 CTX-M-15 [1] | MIC (μg/mL) of Exemplary Compounds in presence of fixed β-lactams: E. cl. 144200 p99 AmpC [2] | MIC (μg/mL) of Exemplary Compounds in presence of fixed β-lactams: K. p. 156319 KPC-3 [3] | MIC (μg/mL) of Exemplary Compounds in presence of fixed β-lactams: P. aerug. 2775 VIM-2 [4] | MIC (μg/mL) of Exemplary Compounds in presence of fixed β-lactams: K. p. A-1797 KPC-2 VIM-4 [5] | MIC (μg/mL) of Exemplary Compounds in presence of fixed β-lactams: K. p. 11978 OXA-48 [6]
NCc1cnnn1CC(=O)N[C@H]1Cc2cccc(C(=O)O)c2OB1O [Example 13, (R)-3-(2-(5-(aminomethyl)-1H-1,2,3-triazol-1-yl)acetamido)-2-hydroxy-3,4-dihydro-2H-benzo[e][1,2]oxaborinine-8-carboxylic acid] | 0.1 to 1 µM | < 0.1 µM | 0.1 to 1 µM | < 0.1 µM | 0.1 to 1 µM | B (B represents an MIC between 1 and 16 μg/mL inclusive) | C (C represents an MIC of <1 μg/mL) | B (B represents an MIC between 1 and 16 μg/mL inclusive) | B (B represents an MIC between 1 and 16 μg/mL inclusive) | B (B represents an MIC between 1 and 16 μg/mL inclusive) | B (B represents an MIC between 1 and 16 μg/mL inclusive)
CNCc1nnn(CC(=O)N[C@H]2Cc3cccc(C(=O)O)c3OB2O)c1CO [Example 14, (R)-2-hydroxy-3-(2-(5-(hydroxymethyl)-4-((methylamino)methyl)-1H-1,2,3-triazol-1-yl)acetamido)-3,4-dihydro-2H-benzo[e][1,2]oxaborinine-8-carboxylic acid] | 0.1 to 1 µM | 0.1 to 1 µM | 0.1 to 1 µM | < 0.1 µM | 0.1 to 1 µM | B (B represents an MIC between 1 and 16 μg/mL inclusive) | C (C represents an MIC of <1 μg/mL) | B (B represents an MIC between 1 and 16 μg/mL inclusive) | B (B represents an MIC between 1 and 16 μg/mL inclusive) | B (B represents an MIC between 1 and 16 μg/mL inclusive) | B (B represents an MIC between 1 and 16 μg/mL inclusive)
CNCc1c(CO)nnn1CC(=O)N[C@H]1Cc2cccc(C(=O)O)c2OB1O [Example 15, (R)-2-hydroxy-3-(2-(4-(hydroxymethyl)-5-((methylamino)methyl)-1H-1,2,3-triazol-1-yl)acetamido)-3,4-dihydro-2H-benzo[e][1,2]oxaborinine-8-carboxylic acid] | 0.1 to 1 µM | 0.1 to 1 µM | < 0.1 µM | < 0.1 µM | 0.1 to 1 µM | C (C represents an MIC of <1 μg/mL) | C (C represents an MIC of <1 μg/mL) | B (B represents an MIC between 1 and 16 μg/mL inclusive) | C (C represents an MIC of <1 μg/mL) | B (B represents an MIC between 1 and 16 μg/mL inclusive) | B (B represents an MIC between 1 and 16 μg/mL inclusive)
O=C(Cn1nnc(C(=O)O)c1C(=O)O)N[C@H]1Cc2cccc(C(=O)O)c2OB1O [Example 16, (R)-1-(2-((8-carboxy-2-hydroxy-3,4-dihydro-2H-benzo[e][1,2]oxaborinin-3-yl)amino)-2-oxoethyl)-1H-1,2,3-triazole-4,5-dicarboxylic acid] | < 0.1 µM | < 0.1 µM | 1 to 10 µM | < 0.1 µM | < 0.1 µM | B (B represents an MIC between 1 and 16 μg/mL inclusive) | C (C represents an MIC of <1 μg/mL) | B (B represents an MIC between 1 and 16 μg/mL inclusive) | B (B represents an MIC between 1 and 16 μg/mL inclusive) | B (B represents an MIC between 1 and 16 μg/mL inclusive) | B (B represents an MIC between 1 and 16 μg/mL inclusive)
NCc1nc(CC(=O)N[C@H]2Cc3cccc(C(=O)O)c3OB2O)cs1 [Example 19, (R)-3-(2-(2-(aminomethyl)thiazol-4-yl)acetamido)-2-hydroxy-3,4-dihydro-2H-benzo[e][1,2]oxaborinine-8-carboxylic acid] | < 0.1 µM | < 0.1 µM | 0.1 to 1 µM | < 0.1 µM | < 0.1 µM | C (C represents an MIC of <1 μg/mL) | C (C represents an MIC of <1 μg/mL) | B (B represents an MIC between 1 and 16 μg/mL inclusive) | C (C represents an MIC of <1 μg/mL) | B (B represents an MIC between 1 and 16 μg/mL inclusive) | B (B represents an MIC between 1 and 16 μg/mL inclusive)
Nc1nnc(CC(=O)N[C@H]2Cc3cccc(C(=O)O)c3OB2O)[nH]1 [Example 20, (R)-3-(2-(5-amino-4H-1,2,4-triazol-3-yl)acetamido)-2-hydroxy-3,4-dihydro-2H-benzo[e][1,2]oxaborinine-8-carboxylic acid] | < 0.1 µM | < 0.1 µM | 0.1 to 1 µM | 0.1 to 1 µM | 0.1 to 1 µM | C (C represents an MIC of <1 μg/mL) | C (C represents an MIC of <1 μg/mL) | B (B represents an MIC between 1 and 16 μg/mL inclusive) | B (B represents an MIC between 1 and 16 μg/mL inclusive) | B (B represents an MIC between 1 and 16 μg/mL inclusive) | B (B represents an MIC between 1 and 16 μg/mL inclusive)
O=C(Cn1cc(CNCCO)nn1)N[C@H]1Cc2cccc(C(=O)O)c2OB1O [Example 21, (R)-2-hydroxy-3-(2-(4-(((2-hydroxyethyl)amino)methyl)-1H-1,2,3-triazol-1-yl)acetamido)-3,4-dihydro-2H-benzo[e][1,2]oxaborinine-8-carboxylic acid] | < 0.1 µM | < 0.1 µM | < 0.1 µM | < 0.1 µM | 0.1 to 1 µM | C (C represents an MIC of <1 μg/mL) | C (C represents an MIC of <1 μg/mL) | B (B represents an MIC between 1 and 16 μg/mL inclusive) | B (B represents an MIC between 1 and 16 μg/mL inclusive) | B (B represents an MIC between 1 and 16 μg/mL inclusive) | B (B represents an MIC between 1 and 16 μg/mL inclusive)
N=CNCc1cn(CC(=O)N[C@H]2Cc3cccc(C(=O)O)c3OB2O)nn1 [Example 22, (R)-3-(2-(4-(formimidamidomethyl)-1H-1,2,3-triazol-1-yl)acetamido)-2-hydroxy-3,4-dihydro-2H-benzo[e][1,2]oxaborinine-8-carboxylic acid] | 0.1 to 1 µM | 0.1 to 1 µM | 0.1 to 1 µM | < 0.1 µM | 1 to 10 µM | C (C represents an MIC of <1 μg/mL) | C (C represents an MIC of <1 μg/mL) | C (C represents an MIC of <1 μg/mL) | C (C represents an MIC of <1 μg/mL) | B (B represents an MIC between 1 and 16 μg/mL inclusive) | B (B represents an MIC between 1 and 16 μg/mL inclusive)
